Source: ChEMBL document CHEMBL1153982, “Synthesis and evaluation of 2,7-diamino-thiazolo[4,5-d] pyrimidine analogues as anti-tumor epidermal growth factor receptor (EGFR) tyrosine kinase inhibitors” (Bioorg Med Chem Lett, 2009)
Values after ≈ are worked out from the molar mass of the structure shown.

Tests used:
[1] = Solubility in aqueous buffer at pH 2.0; format: physicochemical
[2] = Metabolic stability to human liver microsomes assessed as half life; format: ADME, Microsome
[3] = AUC in rat at 10 mg/kg; format: ADME, organism-based; parameters: dose 10 mg/kg; details: plasma
[4] = Half life in rat at 10 mg/kg; format: ADME, organism-based; parameters: dose 10 mg/kg; details: in vivo
[5] = Solubility in aqueous buffer at pH 7.4; format: physicochemical
[6] = Oral bioavailability in rat at 10 mg/kg; format: ADME, organism-based; details: in vivo
[7] = Cmax in rat at 10 mg/kg; format: ADME, organism-based; parameters: dose 10 mg/kg; details: in vivo
[8] = target: Cyclin-dependent kinase 1 (Homo sapiens, UniProt P06493); test: Inhibition of CDK1
Chain of Cyclin-dependent kinase 1 (P06493 whole entry): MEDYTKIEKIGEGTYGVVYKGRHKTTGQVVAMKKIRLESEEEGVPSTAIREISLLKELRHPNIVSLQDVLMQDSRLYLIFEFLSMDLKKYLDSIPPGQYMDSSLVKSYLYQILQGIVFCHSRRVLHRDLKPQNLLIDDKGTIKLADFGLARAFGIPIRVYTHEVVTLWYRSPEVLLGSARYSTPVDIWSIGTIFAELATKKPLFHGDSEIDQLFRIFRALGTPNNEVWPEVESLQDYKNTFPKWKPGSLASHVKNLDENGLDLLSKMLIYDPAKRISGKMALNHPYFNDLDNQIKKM

[9] = target: Epidermal growth factor receptor (Homo sapiens, UniProt P00533)
Chain of Epidermal growth factor receptor (P00533 whole entry): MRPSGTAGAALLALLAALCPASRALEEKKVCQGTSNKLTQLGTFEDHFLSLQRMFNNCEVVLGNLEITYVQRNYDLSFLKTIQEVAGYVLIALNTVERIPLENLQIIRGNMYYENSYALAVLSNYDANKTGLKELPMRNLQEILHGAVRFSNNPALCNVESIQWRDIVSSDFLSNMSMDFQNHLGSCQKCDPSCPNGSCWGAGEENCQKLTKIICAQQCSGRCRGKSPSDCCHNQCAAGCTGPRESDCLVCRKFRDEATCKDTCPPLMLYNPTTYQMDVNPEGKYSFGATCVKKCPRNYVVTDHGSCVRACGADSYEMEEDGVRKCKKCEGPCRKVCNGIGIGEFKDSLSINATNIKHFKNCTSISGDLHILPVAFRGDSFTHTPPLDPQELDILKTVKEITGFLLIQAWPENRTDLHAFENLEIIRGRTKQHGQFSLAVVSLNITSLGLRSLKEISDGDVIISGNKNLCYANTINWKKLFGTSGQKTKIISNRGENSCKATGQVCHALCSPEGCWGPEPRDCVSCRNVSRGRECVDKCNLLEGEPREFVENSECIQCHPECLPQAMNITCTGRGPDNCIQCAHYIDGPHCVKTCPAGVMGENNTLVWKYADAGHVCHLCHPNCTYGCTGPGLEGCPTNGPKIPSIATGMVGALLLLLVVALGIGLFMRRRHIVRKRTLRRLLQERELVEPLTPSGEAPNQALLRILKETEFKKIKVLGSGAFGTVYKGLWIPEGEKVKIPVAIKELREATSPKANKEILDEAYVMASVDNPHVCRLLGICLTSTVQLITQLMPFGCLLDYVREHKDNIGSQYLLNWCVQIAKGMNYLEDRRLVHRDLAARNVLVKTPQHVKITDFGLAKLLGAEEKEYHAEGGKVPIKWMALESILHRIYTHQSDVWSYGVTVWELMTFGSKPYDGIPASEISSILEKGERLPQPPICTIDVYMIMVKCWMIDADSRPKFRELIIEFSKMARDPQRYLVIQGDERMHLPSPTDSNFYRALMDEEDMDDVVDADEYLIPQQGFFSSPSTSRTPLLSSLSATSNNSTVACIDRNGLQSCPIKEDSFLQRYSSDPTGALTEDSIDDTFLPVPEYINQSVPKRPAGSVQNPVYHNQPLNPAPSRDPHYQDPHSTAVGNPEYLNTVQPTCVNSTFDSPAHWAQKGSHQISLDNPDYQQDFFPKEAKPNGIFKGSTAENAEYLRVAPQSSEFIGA

[10] = AUC in mouse at 10 mg/kg; format: ADME, organism-based; parameters: dose 10 mg/kg; details: plasma
[11] = Cmax in mouse at 10 mg/kg; format: ADME, organism-based; parameters: dose 10 mg/kg; details: in vivo
[12] = Oral bioavailability in mouse at 10 mg/kg; format: ADME, organism-based; details: in vivo, read-out: ED15
[13] = Half life in mouse at 10 mg/kg; format: ADME, organism-based; parameters: dose 10 mg/kg; details: in vivo

Row | SMILES | solubility [1] | half-life [2] | AUC [3] | solubility [5] | bioavailability [6] | Cmax [7] | IC50 [9] | other results
1 | CN(C)Cc1ccc(Nc2nc3ncnc(Nc4ccc(F)c(Cl)c4)c3s2)cc1 | 390 µg/mL (≈ 909 µM) | > 100 min | 322 ng·h/mL | 27 µg/mL (≈ 62.9 µM) | 9% | 54 ng/mL |  | half-life [4]: 192 min
2 | NS(=O)(=O)c1ccc(Nc2nc3ncnc(Nc4c(F)cccc4F)c3s2)cc1 |  |  |  |  |  |  |  | IC50 [8]: 19.8 µM
3 | COCCN(CCOC)S(=O)(=O)c1ccc(Nc2nc3ncnc(Nc4ccc(F)c(Cl)c4)c3s2)cc1 |  |  |  |  |  |  | 25 nM | 
4 | NS(=O)(=O)c1ccc(Nc2nc3ncnc(Nc4cccc(Br)c4)c3s2)cc1 |  |  |  |  |  |  | 10 nM | 
5 | CCc1nccn1Cc1ccc(Nc2nc3ncnc(Nc4ccc(F)c(Cl)c4)c3s2)cc1 | 300 µg/mL (≈ 625 µM) | 3 min |  | < 0.2 µg/mL |  |  | 6 nM | 
6 | CN1CCN(Cc2ccc(Nc3nc4ncnc(Nc5ccc(OCc6cccc(F)c6)c(Cl)c5)c4s3)cc2)CC1 |  |  |  |  |  |  | 9 nM | 

Continued, in another order:

Row | solubility [1] | half-life [2] | AUC [3] | solubility [5] | bioavailability [6] | Cmax [7] | IC50 [9] | SMILES | other results
7 | 360 µg/mL (≈ 742 µM) | > 100 min | 24 ng·h/mL | < 0.2 µg/mL | 0.3% | 2.4 ng/mL |  | OC[C@@H]1CCCN1Cc1ccc(Nc2nc3ncnc(Nc4ccc(F)c(Cl)c4)c3s2)cc1 | 
8 |  |  |  |  |  |  | 3300 nM | NS(=O)(=O)c1ccc(Nc2nc3ncnc(Nc4ccc(N5CCOCC5)c(Cl)c4)c3s2)cc1 | 
9 |  |  |  |  |  |  | 4 nM | Fc1ccc(Nc2ncnc3nc(Nc4ccc(CN5CCCC5)cc4)sc23)cc1Cl | 
10 | 37 µg/mL (≈ 74.8 µM) | 13 min | 184 ng·h/mL | < 0.2 µg/mL | 10.8% | 28 ng/mL |  | N#Cc1cnc2nc(Nc3ccc(CN4CCOCC4)cc3)sc2c1Nc1ccc(F)c(Cl)c1 | half-life [4]: 294 min
11 | 290 µg/mL (≈ 598 µM) | 11 min | 1170 ng·h/mL | < 0.2 µg/mL | 13% | 289 ng/mL | 15 nM | Fc1ccc(Nc2ncnc3nc(Nc4ccc(CCN5CCOCC5)cc4)sc23)cc1Cl | half-life [4]: 108 min
12 | < 0.2 µg/mL | > 100 min | 224 ng·h/mL | < 0.2 µg/mL | 0.8% | 39 ng/mL | 7 nM | NS(=O)(=O)c1ccc(Nc2nc3ncnc(Nc4cccc(Cl)c4)c3s2)cc1 | 
13 |  |  |  |  |  |  | 10 nM | Fc1ccc(Nc2ncnc3nc(Nc4ccc(CN5CCCCC5)cc4)sc23)cc1Cl | 
14 | > 1000 µg/mL | 19 min | 2150 ng·h/mL | 1 µg/mL (≈ 2.12 µM) | 20% | 527 ng/mL | 12 nM | Fc1ccc(Nc2ncnc3nc(Nc4ccc(CN5CCOCC5)cc4)sc23)cc1Cl | AUC [10]: 10800 ng·h/mL; half-life [4]: 113 min; Cmax [11]: 3850 ng/mL; bioavailability [12]: 67%; half-life [13]: 174 min
15 |  |  |  |  |  |  | 43 nM | C#Cc1cccc(Nc2ncnc3nc(Nc4ccc(CN5CCOCC5)cc4)sc23)c1 | 
